For experiment [1], the target named is T1, Retinoic acid receptor RXR-alpha (Homo sapiens, UniProt P19793).
T1 sequence (P19793 whole entry): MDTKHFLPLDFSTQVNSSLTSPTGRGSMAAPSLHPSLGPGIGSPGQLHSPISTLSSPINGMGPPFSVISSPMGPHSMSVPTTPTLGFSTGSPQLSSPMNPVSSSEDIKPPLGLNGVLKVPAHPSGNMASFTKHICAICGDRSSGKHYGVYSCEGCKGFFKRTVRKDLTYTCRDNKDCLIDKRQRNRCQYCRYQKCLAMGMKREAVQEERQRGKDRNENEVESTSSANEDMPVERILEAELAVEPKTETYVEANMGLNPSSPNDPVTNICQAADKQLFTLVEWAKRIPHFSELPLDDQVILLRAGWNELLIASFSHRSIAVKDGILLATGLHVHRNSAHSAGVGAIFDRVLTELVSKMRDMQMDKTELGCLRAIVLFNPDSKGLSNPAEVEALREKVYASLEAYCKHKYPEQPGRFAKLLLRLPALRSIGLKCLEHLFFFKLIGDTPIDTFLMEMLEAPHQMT
Kind of experiment: Agonist activity at RXRalpha transfected in […] COS1 cells after 18 hrs by luciferase reporter gene transactivation assay. In kind it is functional, cell-based, COS-1. A general note: Reporter assays use an easily measured gene product as a stand-in for the process of interest.

The target of experiment [2] is Retinoic acid receptor RXR-alpha/oxysterols receptor LXR-alpha (Homo sapiens) (UniProt P19793+Q13133). The experiment in a line: Agonist activity at LXRalpha/RXRalpha transfected in […] COS1 cells at 10^-7 to 10^-6 M after 18 hrs by luciferase reporter gene transactivation assay. The class given is functional, cell-based. Particulars: COS-1.
Experiment [3] addresses T2, Oxysterols receptor LXR-alpha (Homo sapiens) (UniProt Q13133).
T2 sequence (whole entry): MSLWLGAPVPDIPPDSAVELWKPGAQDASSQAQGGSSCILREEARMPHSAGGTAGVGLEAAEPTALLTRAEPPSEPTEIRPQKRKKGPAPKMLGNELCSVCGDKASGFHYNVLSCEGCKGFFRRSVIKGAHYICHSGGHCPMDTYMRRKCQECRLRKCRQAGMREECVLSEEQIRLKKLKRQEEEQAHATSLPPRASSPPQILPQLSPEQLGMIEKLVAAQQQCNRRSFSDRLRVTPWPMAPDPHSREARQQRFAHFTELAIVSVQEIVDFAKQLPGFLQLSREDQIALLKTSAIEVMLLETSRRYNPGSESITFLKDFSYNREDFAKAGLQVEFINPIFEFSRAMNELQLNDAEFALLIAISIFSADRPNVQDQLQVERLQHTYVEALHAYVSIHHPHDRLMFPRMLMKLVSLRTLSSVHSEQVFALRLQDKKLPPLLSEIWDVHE
Kind of experiment: Agonist activity at LXRalpha transfected in […] COS1 cells after 18 hrs by luciferase reporter gene transactivation assay. The class given is functional, cell-based. Particulars: COS-1.

Calls of active or inactive are those of the source. The rule behind the calls is not given here.

`CCN(c1ccc(C(C)C)c(OCc2ccccc2)c1)c1ccc(C(=O)O)cn1` came in with an EC50 in experiment [1] of 160 nM. In addition, the outcome in experiment [2] was Active.

In turn, `CCN(c1ccc(C(C)C)c(OCC2CC2)c1)c1ccc(C(=O)O)cn1` showed an EC50 in experiment [1] of 290 nM. The outcome in experiment [2] was Active.

`CCN(c1ccc(C(C)C)c(OCC=C(C)C)c1)c1ccc(C(=O)O)cn1` came in with an EC50 in experiment [1] of 160 nM.

In turn, `CCCOc1cc(N(CC)c2ccc(C(=O)O)cn2)ccc1C(C)C` registered an EC50 in experiment [1] of 450 nM.

`CCN(c1ccc(C(C)C)c(OCC(F)(F)F)c1)c1ccc(C(=O)O)cn1` displayed an EC50 in experiment [1] of 160 nM.

On to `CCCCCCOc1cc(N(CC)c2ccc(C(=O)O)cn2)ccc1C(C)C`, for which, in experiment [1], it took 280 nM to reach a half-maximal effect (EC50).

Turning to `CCN(c1ccc(C(C)C)c(OCC(C)C)c1)c1ccc(C(=O)O)cn1`, the result in experiment [3] was Active.

In experiment [1], `C=C(C)COc1cc(N(CC)c2ccc(C(=O)O)cn2)ccc1C(C)C` registered an EC50 of 110 nM.

Compound `CCN(c1ccc(C(C)C)c(OCCCc2ccccc2)c1)c1ccc(C(=O)O)cn1` gave an EC50 in experiment [1] of 820 nM.

Compound `CCCCCOc1cc(N(CC)c2ccc(C(=O)O)cn2)ccc1C(C)C` registered an EC50 in experiment [1] of 160 nM. Moreover, the outcome in experiment [2] was Active.

`CCN(c1ccc(C(C)C)c(OC(C)C)c1)c1ccc(C(=O)O)cn1` registered an EC50 in experiment [1] of 66 nM.

Take `CCN(c1ccc(C(C)C)c(OCCc2ccccc2)c1)c1ccc(C(=O)O)cn1`: a half-maximal effect in experiment [1] (EC50) was put at 330 nM.

Turning to `CCN(c1ccc2c(c1)C(C)(C)CCC2(C)C)c1ccc(C(=O)O)cn1`, the outcome in experiment [3] was Active.

In experiment [1], `CCCCOc1cc(N(CC)c2ccc(C(=O)O)cn2)ccc1C(C)C` yielded an EC50 of 180 nM.

For orientation: EC50 means the concentration at which the effect is half-maximal.

(Values after ChEMBL document CHEMBL1687703, “Modification at the Lipophilic Domain of RXR Agonists Differentially Influences Activation of RXR Heterodimers” (ACS Med Chem Lett, 2010).)
